Data set [1] addresses T1, NaV1.7 (Homo sapiens, UniProt Q15858).
T1 construct: expressed in transfected cells; host or cells: HEK293 (tetracycline-inducible)
Briefly: Automated patch clamp (Qube 384), external block of NaV1.7. The format is cell-based. To be noted: IC50, compound in external solution, HEK293 cells, read-out: Nav1.7 Extracellular Inhibition. The method in brief: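 Tetracycline-induced HEK293 cells, whole-cell patch at 22 degrees, held at −100 mV; 10 ms pulses to −20 mV at 5 Hz with leak subtraction. Compound applied in external solution (pH 7.4), then 10 min recording. Control-corrected, Hill-fitted IC50.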
On the technique in general: In patch-clamp work, channel activity is measured electrically.

Data set [2] in a line: PAMPA membrane permeability assay. The format is in vitro ADME. To be noted: permeability coefficient, pH 7.4 buffer, GIT lipid, 4 hours incubation. An outline of the steps:
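Passive diffusion across a GIT-lipid-painted artificial membrane at pH 7.4, with a 50 uM donor stock diluted from DMSO and a 4 h incubation. UV spectra of the donor, acceptor and reference plates were read, and the permeability coefficient was calculated from the AUCs, in 10^−6 cm/s.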
(In general: PAMPA measures passive passage across an artificial lipid membrane.)

T1 sequence (Q15858 whole entry): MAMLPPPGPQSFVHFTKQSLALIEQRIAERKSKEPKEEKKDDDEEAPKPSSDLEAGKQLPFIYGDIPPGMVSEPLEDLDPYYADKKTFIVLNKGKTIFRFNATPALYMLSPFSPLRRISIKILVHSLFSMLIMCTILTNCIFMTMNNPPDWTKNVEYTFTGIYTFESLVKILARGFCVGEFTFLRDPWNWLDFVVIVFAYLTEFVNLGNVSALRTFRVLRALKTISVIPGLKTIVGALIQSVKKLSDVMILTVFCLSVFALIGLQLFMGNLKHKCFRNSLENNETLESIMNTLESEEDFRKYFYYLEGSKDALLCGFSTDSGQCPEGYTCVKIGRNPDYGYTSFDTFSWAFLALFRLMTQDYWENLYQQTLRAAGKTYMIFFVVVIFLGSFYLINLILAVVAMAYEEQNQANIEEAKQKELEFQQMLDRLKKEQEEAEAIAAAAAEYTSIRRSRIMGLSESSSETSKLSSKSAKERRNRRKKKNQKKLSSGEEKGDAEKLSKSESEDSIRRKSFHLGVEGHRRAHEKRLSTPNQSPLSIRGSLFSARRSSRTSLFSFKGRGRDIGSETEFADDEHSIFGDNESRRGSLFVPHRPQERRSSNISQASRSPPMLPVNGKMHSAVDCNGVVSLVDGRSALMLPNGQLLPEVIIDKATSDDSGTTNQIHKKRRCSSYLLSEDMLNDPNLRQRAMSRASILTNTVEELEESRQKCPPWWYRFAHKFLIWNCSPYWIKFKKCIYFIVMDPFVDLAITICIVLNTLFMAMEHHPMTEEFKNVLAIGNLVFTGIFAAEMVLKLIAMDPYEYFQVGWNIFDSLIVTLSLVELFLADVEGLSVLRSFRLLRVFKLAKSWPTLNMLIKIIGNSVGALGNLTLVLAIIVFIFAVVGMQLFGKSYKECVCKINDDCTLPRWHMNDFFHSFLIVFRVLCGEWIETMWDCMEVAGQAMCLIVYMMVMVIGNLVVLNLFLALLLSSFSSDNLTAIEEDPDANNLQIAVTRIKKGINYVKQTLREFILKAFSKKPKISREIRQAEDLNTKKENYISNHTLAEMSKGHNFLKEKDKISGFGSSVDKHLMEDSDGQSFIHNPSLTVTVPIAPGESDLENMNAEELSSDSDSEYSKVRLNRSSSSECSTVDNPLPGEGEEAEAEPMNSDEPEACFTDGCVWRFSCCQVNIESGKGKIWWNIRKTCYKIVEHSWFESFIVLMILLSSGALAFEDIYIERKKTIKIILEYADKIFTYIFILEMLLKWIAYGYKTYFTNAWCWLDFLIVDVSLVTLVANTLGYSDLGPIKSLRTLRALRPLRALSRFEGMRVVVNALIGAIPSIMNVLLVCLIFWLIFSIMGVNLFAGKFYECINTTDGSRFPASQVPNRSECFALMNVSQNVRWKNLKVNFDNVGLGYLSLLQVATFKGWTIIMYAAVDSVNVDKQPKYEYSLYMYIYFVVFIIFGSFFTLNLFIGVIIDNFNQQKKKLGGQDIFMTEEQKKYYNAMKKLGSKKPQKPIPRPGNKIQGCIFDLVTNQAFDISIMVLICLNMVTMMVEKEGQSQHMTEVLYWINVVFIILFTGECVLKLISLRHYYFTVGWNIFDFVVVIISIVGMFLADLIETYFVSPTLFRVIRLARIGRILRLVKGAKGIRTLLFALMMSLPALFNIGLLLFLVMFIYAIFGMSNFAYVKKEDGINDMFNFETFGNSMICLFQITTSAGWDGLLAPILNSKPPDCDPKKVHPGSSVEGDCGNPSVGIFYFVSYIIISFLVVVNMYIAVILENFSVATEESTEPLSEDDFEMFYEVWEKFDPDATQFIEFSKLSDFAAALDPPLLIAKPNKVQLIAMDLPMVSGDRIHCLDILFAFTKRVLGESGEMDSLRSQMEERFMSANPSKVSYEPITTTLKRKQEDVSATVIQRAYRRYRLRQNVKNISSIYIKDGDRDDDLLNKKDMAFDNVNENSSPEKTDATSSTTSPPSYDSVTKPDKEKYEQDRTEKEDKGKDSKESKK

Turning to `COC(=O)c1ccccc1C[N+]1(CC(=O)Nc2c(C)cccc2C)CCCCC1.[Br-]` [Compound 37A, 1-(2-((2,6-dimethylphenyl)amino)-2-oxoethyl)-1-(2-(methoxycarbonyl)benzyl) piperidin-1-ium bromide], the IC50 in data set [1] is above 10 µM. The “PAMPA (10^−6 cm/s)” value in data set [2] is recorded as “+ (“+” (<0.1 10^−6 cm/s))”.
With `CNC(=O)C1CCC[N+](CC(=O)Nc2c(C)cccc2C)(Cc2ccccc2)C1` (stereo not drawn) [Compound 55A], in data set [1], the IC50 is above 10 µM. Further, the “PAMPA (10^−6 cm/s)” value in data set [2] is given as “+++ (“+++” (2.0-10.010^−6 cm/s))”.
`Cc1cccc(C)c1NC(=O)C[N+]1(Cc2ccccc2)CCCC(C(=O)N2CCCC2)C1` (stereo not drawn) [Compound 62A]: the IC50 in data set [1] was above 10 µM. Also, in data set [2], the “PAMPA (10^−6 cm/s)” value was “+ (“+” (<0.1 10^−6 cm/s))”.
In the same order, the values of `CC[N+](CC)(CCCc1ccccc1)CC(=O)Nc1c(C)cccc1C.[Br-]` [Compound 86A, N-(2-((2,6-dimethylphenyl)amino)-2-oxoethyl)-N, N-diethyl-3-phenylpropan-1-aminium bromide] are above 10 µM and “+ (“+” (<0.1 10^−6 cm/s))”.
For `Cc1cccc(C)c1N1CCC([N+]2(Cc3ccccc3)CCCCCCC2)C1=O.[Br-]` (stereo not drawn) [Compound 90A], the IC50 in data set [1] lay in the range of 3 to 10 µM. In addition, in data set [2], the “PAMPA (10^−6 cm/s)” value is on record as “+ (“+” (<0.1 10^−6 cm/s))”.
For the compound `Cc1cccc(C)c1NC(=O)C[N+]1(Cc2ccccc2)CCCC(F)(F)C1.[Br-]` (stereo not drawn) [Compound 32A, 1-benzyl-1-(2-((2,6-dimethylphenyl)amino)-2-oxoethyl)-3,3-difluoropiperidin-1-ium bromide], the IC50 in data set [1] was above 10 µM. For the same compound, the “PAMPA (10^−6 cm/s)” value in data set [2] was “+ (“+” (<0.1 10^−6 cm/s))”.
Regarding `CCCOC(=O)C1CCC[N+](CC(=O)Nc2c(C)cccc2C)(Cc2ccccc2)C1.[Br-]` (stereo not drawn) [Compound 47A, 1-benzyl-1-(2-((2,6-dimethylphenyl)amino)-2-oxoethyl)-3-(propoxycarbonyl) piperidin-1-ium bromide], the IC50 in data set [1] was 1 to 3 µM. In data set [2], the “PAMPA (10^−6 cm/s)” value is on record as “+ (“+” (<0.1 10^−6 cm/s))”.
As for `CCC(=O)Oc1cccc(C)c1NC(=O)C[N+]1(Cc2ccccc2)CCCCCC1.[Br-]` [Compound 80A, 1-benzyl-1-(2-((2-methyl-6-(propionyloxy)phenyl)amino)-2-oxoethyl) azepan-1-ium bromide], the IC50 in data set [1] is above 10 µM. In addition, the “PAMPA (10^−6 cm/s)” value in data set [2] is listed as “+ (“+” (<0.1 10^−6 cm/s))”.
For `CCCOC(=O)N1CCC[N+](CC(=O)Nc2c(C)cccc2C)(Cc2ccccc2)CC1.[Br-]` (stereo not drawn) [Compound 68A, 1-benzyl-1-(2-((2,6-dimethylphenyl)amino)-2-oxoethyl)-4-(propoxycarbonyl)-1,4-diazepan-1-ium bromide], in that order: above 10 µM and “+ (“+” (<0.1 10^−6 cm/s))”.

The record behind these values is US11603355B2, “Charged ion channel blockers and methods for use” (Nocion Therapeutics, Inc., priority 2019, dated 2023).
